Laboratory results taken from patent publication US9491962B2, “Use of chicoric acid and derivatives for regulating skin pigmentation” (Nestec S.A., priority 2010, dated 2016).

Key:
HPEK = experiment: Highest non cytotoxic concentration on HPEK; format: cell-based, human; conditions: mM
Procedure: (§1) We have tested two chicory extracts MS-55 (concentré MS-55 LEROUX) and MS-70 (pâte MS-70 LEROUX) and Chicoric acid.
The potential beneficial effect of the Extracts of Example 1 towards skin barrier function and skin hydration was evaluated by using 2D culture of human primary epidermal keratinocytes and we assessed the synthesis of filaggrin

B16 murine melanocytes = experiment: Production of melanin by B16 murine melanocyte cell line; format: cell-based; conditions: for melanin production (result in words): B16 melanocytes, 72 hours, Kojic acid at 400 μg/mL
Procedure: In order to evaluate the potential beneficial effect of ingredients towards skin de- or pro-pigmentation we used 2D culture of murine melanocytes (B16) and we performed 2 tests: 1-assessment of melanin production and 2-assessment of tyrosinase production. B16 cells were cultured in DMEM 1 g/L glucose without phenol red supplemented with 10% foetal calf serum, in a humidified chamber at 37° C. and containing 5% CO2. Cells were incubated with the selected ingredients or the test references (Kojic acid at 400 μg/mL) for 72 hours, in the presence or absence of NDP-MSH an analog of MSH. The total quantity of melanin (extracellular and intracellular) was evaluated by measurement of the optical density at 405 nm of each sample against melanin standards in presence or in absence of NDP-MSH.

HDF = experiment: Highest non cytotoxic concentration on HDF; format: cell-based; conditions: mM
From the text: as §1

filaggrin = experiment: Synthesis of filaggrin by human epidermal keratinocytes (immunolabeling); format: cell-based; conditions: human primary epidermal keratinocytes, 144 hours
Procedure: The potential beneficial effect of the Extracts of Example 1 towards skin barrier function and skin hydration was evaluated by using 2D culture of human primary epidermal keratinocytes and we assessed the synthesis of filaggrin Human epidermal keratinocytes were cultured in control keratinocytes-SFM medium, in a humidified chamber at 37° C. and containing 5% CO2. Cells were incubated with the selected ingredients or the test references (CaCl2 at 1.5 mM) for 144 hours. The production of filaggrin by was evaluated by immunolabeling.

Compound | Highest non cytotoxic conc. on HPEK (HPEK) | decrease of melanin production (B16 murine melanocytes; B16 melanocytes treated for 72 hours, percentage relative to the control) | melanin production (result in words) (B16 murine melanocytes) | Highest non cytotoxic conc. on HDF (HDF) | filaggrin synthesis (result in words) (filaggrin)
O=C(/C=C/c1ccc(O)c(O)c1)O[C@@H](C(=O)O)[C@@H](OC(=O)/C=C/c1ccc(O)c(O)c1)C(=O)O [Chicoric acid] | 0.2 mM | 90% | decrease in vitro the synthesis of melanin | 0.2 mM | increase of filaggrin
O=c1cc(CO)occ1O [Kojic acid, reference compound] |  |  | decrease in melanin production |  | 
